Reference: PMC5656653, “Evaluation of Ga-DOTA-(D-Asp)n as bone imaging agents: D-aspartic acid peptides as carriers to bone” (Scientific Reports, 2017)
Where a SMILES comes first, the peptide text is derived from it. [ ]: non-standard residue; d: D form. The star is where a group is joined. DOTA = O=C(O)CN1CCN(CC(=O)O)CCN(CC(=O)*)CCN(CC(=O)O)CC1

Assay: Biodistribution experiments in normal mice after i.v. injection
Assay type: in vivo
Settings: mouse, in vivo, iv; for tissue uptake dose at 10 min / tissue uptake dose at 1 h / tissue uptake dose at 3 h: male, ddY, total radioactivity, Biodistribution of radioactivity
Experimental: Experiments with animals were conducted in strict accordance with the Guidelines for the Care and Use of Laboratory Animals of Kanazawa University. The animal experimental protocols used were approved by the Committee on Animal Experimentation of Kanazawa University (Permit Number: AP-132633). Biodistribution experiments were performed after intravenous administration of each diluted tracer solution (37–740 kBq/100 μL) to 6-week-old male ddY mice (27–32 g, Japan SLC, Inc., Hamamatsu, Japan). Four or five mice at each time point after the administration of each compound were sacrificed by decapitation at 10, 60, and 180 min post-injection. Tissues of interest were taken and weighed. Complete left femurs were isolated as representative bone samples, radioactivity was determined using gamma counters (AccuFLEX γ ARC-8001 in the case of ^18F, Hitachi, Ltd.), and background counts and physical decay were corrected during counting.

tissue uptake dose at 10 min (Blood): 1.94 %ID
tissue uptake dose at 1 h (Blood): 0.33 %ID
tissue uptake dose at 3 h (Blood): 0.13 %ID
tissue uptake dose at 10 min (Bone (Femur)): 9.86 %ID
tissue uptake dose at 1 h (Bone (Femur)): 11.6 %ID
tissue uptake dose at 3 h (Bone (Femur)): 12.5 %ID
tissue uptake dose at 10 min (Brain): 0.05 %ID
tissue uptake dose at 1 h (Brain): 0.01 %ID
tissue uptake dose at 3 h (Brain): 0.01 %ID
tissue uptake dose at 10 min (Heart): 0.63 %ID
tissue uptake dose at 1 h (Heart): 0.14 %ID
tissue uptake dose at 3 h (Heart): 0.05 %ID
tissue uptake dose at 10 min (Kidney): 12.8 %ID
tissue uptake dose at 1 h (Kidney): 2.49 %ID
tissue uptake dose at 3 h (Kidney): 1.23 %ID
tissue uptake dose at 10 min (Large-intestine): 0.26 %ID
tissue uptake dose at 1 h (Large-intestine): 0.05 %ID
tissue uptake dose at 3 h (Large-intestine): 0.08 %ID
tissue uptake dose at 10 min (Liver): 0.46 %ID
tissue uptake dose at 1 h (Liver): 0.14 %ID
tissue uptake dose at 3 h (Liver): 0.11 %ID
tissue uptake dose at 10 min (Lung): 1.34 %ID
tissue uptake dose at 1 h (Lung): 0.26 %ID
tissue uptake dose at 3 h (Lung): 0.1 %ID
tissue uptake dose at 10 min (Muscle): 0.57 %ID
tissue uptake dose at 1 h (Muscle): 0.15 %ID
tissue uptake dose at 3 h (Muscle): 0.14 %ID
tissue uptake dose at 10 min (Pancreas): 0.57 %ID
tissue uptake dose at 1 h (Pancreas): 0.11 %ID
tissue uptake dose at 3 h (Pancreas): 0.08 %ID
tissue uptake dose at 10 min (Small-intestine): 0.39 %ID
tissue uptake dose at 1 h (Small-intestine): 0.13 %ID
tissue uptake dose at 3 h (Small-intestine): 0.1 %ID
tissue uptake dose at 10 min (Spleen): 0.42 %ID
tissue uptake dose at 1 h (Spleen): 0.16 %ID
tissue uptake dose at 3 h (Spleen): 0.09 %ID
tissue uptake dose at 10 min (Stomach): 0.34 %ID
tissue uptake dose at 1 h (Stomach): 0.04 %ID
tissue uptake dose at 3 h (Stomach): 0.1 %ID
SMILES: O=C(O)C[C@@H](NC(=O)[C@@H](CC(=O)O)NC(=O)[C@@H](CC(=O)O)NC(=O)[C@@H](CC(=O)O)NC(=O)[C@@H](CC(=O)O)NC(=O)[C@@H](CC(=O)O)NC(=O)[C@@H](CC(=O)O)NC(=O)[C@@H](CC(=O)O)NC(=O)CN1CCN(CC(=O)O)CCN(CC(=O)O)CCN(CC(=O)O)CC1)C(=O)O [^67Ga-DOTA-(D-Asp)8, metal not drawn] ({DOTA}-[dD][dD][dD][dD][dD][dD][dD][dD]-OH)
Accumulation of radioactivity in bone (in words): high accumulation and retention of radioactivity in bone
